From patent EP3936128A1, “ACTIVE SUBSTANCE AGAINST PROTOZOA” (Christian-Albrechts-Universität zu Kiel, priority 2020, dated 2022)
Read-outs that look alike come from different tables or passages of the source.

Tests used:
Type in all cases: cell-based
[1] = target: T1, PfFNT wildtype (Plasmodium falciparum, UniProt O77389); experiment: Inhibition of radiolabelled L-lactate uptake in yeast expressing wild-type PfFNT
T1 construct: expressed in transfected cells; host or cells: Saccharomyces cerevisiae W303-1A jen1Δ ady2Δ, plasmid pDR196
Experimental: (§1) Plasmodium falciparum were kept in culture in 5% 0+ erythrocytes in RPMI 1640 medium containing 0,5% Albumax at 37 °C. […] Medium containing test compounds was exchanged every 24 h. In order to test for the propensity of parasites to develop resistance to a given substance, 3D7 parasites were grown in the presence of 3 x IC50 of a test for 30 days. Thereafter the drug was removed by exchanging the medium, and the day recorded when parasites resurfaced in the culture. As an alternative to Plasmodium falciparum, the FNT of the wild-type plasmodium (available under accession number PF3D7_0316600 in the data bank PlasmoDB) and the FNT (G107S mutant FNT) of the resistant plasmodia were expressed in the yeast Saccharomyces cerevisiae W303-1A jen1Δ ady2Δ from plasmid pDR196 (PMA promoter). In the yeast, the endogenous genes for the monocarboxylate transporter Jen1p (sequence accession No. CAA82062 NCBI) and Ady2p (sequence accession No. KZV12856) were deleted (obtained from M. Casal, Universidade do Minho, Portugal).
(§2) This yeast was grown in SD medium with addition of adenine, histidine, leucine, tryptophan and 2 % (wt/v) glucose at 30 °C up to an OD600 of 0.8 to 1.0, harvested by centrifugation and washed once with water and centrifuged down again, and suspended in 50 mM HEPES/TRIS (pH 6.8) and adjusted to an OD600 of 50± 10% and stored on ice. For contacting with one of the compounds a compound of one step of a dilution series in DMSO was provided in a reaction vessel and onto this 80 µL of the yeast suspension were pipetted. After an incubation on ice for 15 to 20 min 20 µL 5 mM Na-L-lactate plus 0.04 µCi radioactively labelled L-(1-^14C) lactate was added. The lactate concentration obtained was 1 mM. After an incubation of 30 s the uptake of lactate was stopped by a rapid dilution by means of adding of 1 ml ice cold water. From the yeast suspension diluted this way the yeast cells were brought onto a filter membrane by vacuum filtration, washed with 7 ml cold water and transferred with the filter membrane into 3 ml scintillation cocktail. After 24 h of incubation at 18 °C in the scintillation cocktail, in which the cells were lysed, the amount of radioactively labelled lactate was measured by means of a scintillation counter. The total amount of lactate which was taken up by the yeast was calculated from the measured amount of radioactively labelled lactate. As a positive control the yeast was treated equally in parallel testing with DMSO without one of the compounds and was regarded as 100% FNT activity, respectively 0% inhibition. In tests with the compound a lower amount of lactate taken up was found in comparison to the parallel positive control. As a negative control yeast was treated in parallel in which the endogenous genes for the monocarboxylate transporters Jen1p and Ady2p were deleted, but the FNT from plasmodium was not expressed. This negative control was regarded as 0% FNT activity, respectively 100% inhibition.

[2] = target: T2, PfFNT G107S (Plasmodium falciparum, UniProt O77389, G107S); experiment: Inhibition of radiolabelled L-lactate uptake in yeast expressing G107S mutant PfFNT
T2 construct: expressed in transfected cells; host or cells: Saccharomyces cerevisiae W303-1A jen1Δ ady2Δ, plasmid pDR196
T2 sequence (O77389 1-309 G107S): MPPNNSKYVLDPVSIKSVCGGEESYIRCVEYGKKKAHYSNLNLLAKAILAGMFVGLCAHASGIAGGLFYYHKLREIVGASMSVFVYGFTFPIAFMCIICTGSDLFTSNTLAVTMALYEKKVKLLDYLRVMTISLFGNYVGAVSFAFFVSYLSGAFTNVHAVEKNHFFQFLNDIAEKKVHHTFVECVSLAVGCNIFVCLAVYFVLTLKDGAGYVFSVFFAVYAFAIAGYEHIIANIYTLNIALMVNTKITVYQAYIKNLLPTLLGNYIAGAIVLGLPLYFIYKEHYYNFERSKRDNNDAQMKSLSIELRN
Experimental: as §1, §2

[3] = target: FNT of P. vivax (PvFNT) (Plasmodium vivax, UniProt A0A1G4GWI6); experiment: Inhibition of the FNT of P. vivax
[4] = target: FNT of P. knowlesi (PkFNT) (Plasmodium knowlesi, UniProt A0A679KXN5); experiment: Inhibition of the FNT of P. knowlesi
[5] = target: FNT of P. ovale (PoFNT) (Plasmodium ovale, UniProt A0A1D3TGZ2); experiment: Inhibition of the FNT of P. ovale
[6] = target: FNT of P. malariae (PmFNT) (Plasmodium malariae, UniProt A0A1C3KYI2); experiment: Inhibition of the FNT of P. malariae
[7] = G107S mutant FNT, 1 mM lactate, pH 6.8, 30 s uptake, read-out: PfFNT G107S IC50
[8] = read-out: IC50 for the FNT of P. vivax (PvFNT)

Chain of FNT of P. vivax (PvFNT) (A0A1G4GWI6 whole entry): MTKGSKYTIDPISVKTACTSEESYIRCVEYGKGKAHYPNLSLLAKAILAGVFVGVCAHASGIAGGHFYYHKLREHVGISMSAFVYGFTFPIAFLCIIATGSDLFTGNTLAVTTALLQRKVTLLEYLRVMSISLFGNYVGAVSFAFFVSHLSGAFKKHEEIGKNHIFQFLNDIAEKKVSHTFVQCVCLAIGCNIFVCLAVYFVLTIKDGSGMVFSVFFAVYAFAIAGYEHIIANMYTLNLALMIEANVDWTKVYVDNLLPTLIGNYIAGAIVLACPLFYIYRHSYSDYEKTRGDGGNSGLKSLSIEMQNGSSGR
Chain of FNT of P. knowlesi (PkFNT) (A0A679KXN5 whole entry): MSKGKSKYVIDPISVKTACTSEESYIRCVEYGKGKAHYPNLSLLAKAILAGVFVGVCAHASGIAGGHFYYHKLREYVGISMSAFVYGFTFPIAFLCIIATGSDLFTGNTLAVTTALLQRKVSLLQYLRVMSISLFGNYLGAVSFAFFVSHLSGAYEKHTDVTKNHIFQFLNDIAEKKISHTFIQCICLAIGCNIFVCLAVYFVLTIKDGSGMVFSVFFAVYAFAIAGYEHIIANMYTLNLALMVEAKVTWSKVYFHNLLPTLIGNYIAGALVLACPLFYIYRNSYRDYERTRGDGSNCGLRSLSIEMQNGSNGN
T1 sequence (O77389 whole entry): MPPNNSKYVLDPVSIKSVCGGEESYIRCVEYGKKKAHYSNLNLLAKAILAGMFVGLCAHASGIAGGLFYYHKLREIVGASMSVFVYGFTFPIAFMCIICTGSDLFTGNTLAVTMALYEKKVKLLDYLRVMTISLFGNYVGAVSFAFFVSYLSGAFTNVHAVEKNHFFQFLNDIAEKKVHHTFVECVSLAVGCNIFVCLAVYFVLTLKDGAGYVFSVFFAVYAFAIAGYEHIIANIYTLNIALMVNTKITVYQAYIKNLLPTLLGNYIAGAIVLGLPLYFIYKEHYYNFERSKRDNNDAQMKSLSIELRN
Chain of FNT of P. ovale (PoFNT) (A0A1D3TGZ2 whole entry): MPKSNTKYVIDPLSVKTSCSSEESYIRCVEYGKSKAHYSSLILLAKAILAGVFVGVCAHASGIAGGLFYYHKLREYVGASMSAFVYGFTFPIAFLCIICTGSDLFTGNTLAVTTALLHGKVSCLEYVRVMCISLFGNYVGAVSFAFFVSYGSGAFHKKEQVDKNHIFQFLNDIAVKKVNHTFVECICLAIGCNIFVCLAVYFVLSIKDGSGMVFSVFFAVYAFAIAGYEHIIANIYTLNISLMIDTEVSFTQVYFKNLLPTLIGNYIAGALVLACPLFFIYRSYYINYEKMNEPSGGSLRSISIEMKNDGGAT
Chain of FNT of P. malariae (PmFNT) (A0A1C3KYI2 whole entry): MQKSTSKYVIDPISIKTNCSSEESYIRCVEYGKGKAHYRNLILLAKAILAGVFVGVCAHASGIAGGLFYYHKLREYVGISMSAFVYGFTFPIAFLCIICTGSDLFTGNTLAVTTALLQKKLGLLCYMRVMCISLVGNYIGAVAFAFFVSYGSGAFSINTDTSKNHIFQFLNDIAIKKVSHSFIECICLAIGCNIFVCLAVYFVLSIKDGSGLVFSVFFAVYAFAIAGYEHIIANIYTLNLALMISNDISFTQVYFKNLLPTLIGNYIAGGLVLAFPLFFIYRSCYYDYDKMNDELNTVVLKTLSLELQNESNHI

| SMILES | IC50 [1] [µM] | IC50 [2, 7] [µM] | IC50 [2] [µM] | also measured |
| --- | --- | --- | --- | --- |
| COc1ccc(C(=O)C=C(O)C(F)(F)C(F)(F)F)c(O)c1 [compound [1], reference compound] | 0.17 ± 0.01 | 21 ± 1 | – | IC50 [3, 8]: 0.069 ± 0.003 µM; IC50 [4]: 0.212 ± 0.07 µM |
| COc1ccc(C(=O)C=C(O)C(F)(F)C(F)(F)F)cc1 [compound [2], reference compound] | 0.14 ± 0.01 | 2.7 ± 0.2 | – | IC50 [3, 8]: 0.249 ± 0.08 µM; IC50 [4]: 0.985 ± 0.08 µM; IC50 [5]: ~0.9 µM; IC50 [6]: 0.391 ± 0.05 µM |
| CC(C)(O)CC(=O)C=C(O)C(F)(F)C(F)(F)F [compound [3], reference compound] | 1.1 ± 0.1 | 490 ± 20 | – | – |
| O=C(C=C(O)C(F)(F)C(F)(F)F)c1ccc[nH]1 [compound [4], reference compound] | 0.16 ± 0.01 | 12 ± 1 | – | – |
| O=C(C=C(O)C(F)(F)C(F)(F)F)c1cc[nH]c1 [compound [5], reference compound] | 0.2 ± 0.01 | 13 ± 1 | – | – |
| Cn1ccc(C(=O)C=C(O)C(F)(F)C(F)(F)F)c1 [compound [6], reference compound] | 0.13 ± 0.01 | 14 ± 1 | – | – |
| O=C(C=C(O)C(F)(F)C(F)(F)F)c1cc2ccccc2o1 [compound [7], reference compound] | 0.19 ± 0.01 | 17 ± 2 | – | – |
| O=C(C=C(O)C(F)(F)C(F)(F)F)c1cccnn1 [compound [12], 4,4,5,5,5-pentafluoro-3-hydroxy-1-pyridazin-3-yl-pent-2-en-1-one] | 0.86 ± 0.03 | – | 3.8 ± 0.8 | – |
| O=C(C=C(O)C(F)(F)C(F)(F)F)c1cnccn1 [compound [13], 4,4,5,5,5-pentafluoro-3-hydroxy-1-pyrazin-2-yl-pent-2-en-1-one] | 0.46 ± 0.03 | – | 1.2 ± 0.3 | – |
| O=C(C=C(O)C(F)(F)C(F)(F)F)c1ccncc1 [compound [14], 4,4,5,5,5-pentafluoro-3-hydroxy-1-(4-pyridyl)pent-2-en-1-one] | 0.15 ± 0.03 | – | 22 ± 7 | – |
| O=C(C=C(O)C(F)(F)C(F)(F)F)c1ccccn1 [compound [15], 4,4,5,5,5-pentafluoro-3-hydroxy-1-(2-pyridyl)pent-2-en-1-one] | 0.15 ± 0.01 | – | 0.58 ± 0.09 | – |
| O=C(C=C(O)C(F)(F)C(F)(F)F)c1cccnc1 [compound [16], 4,4,5,5,5-pentafluoro-3-hydroxy-1-(3-pyridyl)pent-2-en-1-one] | 0.11 ± 0.01 | – | 0.63 ± 0.05 | IC50 [3]: 0.229 ± 0.01 µM; IC50 [4]: 0.874 ± 0.06 µM; IC50 [5]: 0.213 ± 0.03 µM; IC50 [6]: 0.214 ± 0.02 µM |
| O=C(C=C(O)C(F)(F)C(F)(F)F)c1cnc2ccccc2c1 [compound [17], 4,4,5,5,5-pentafluoro-3-hydroxy-1-(3-quinolyl)pent-2-en-1-one] | 0.24 ± 0.04 | – | – | IC50 ([2]; read-out: PfFNT G107S IC50, G107S mutant FNT, 1 mM lactate, pH 6.8, 30 s uptake): 96 ± 0.8 µM |
| Cc1ccc(C(=O)C=C(O)C(F)(F)C(F)(F)F)cn1 [compound [18], 4,4,5,5,5-pentafluoro-3-hydroxy-1-(6-methyl-3-pyridyl)pent-2-en-1-one] | 0.15 ± 0.01 | – | 1.7 ± 0.3 | – |
| O=C(C=C(O)C(F)(F)C(F)(F)F)c1ccc(Cl)cn1 [compound [19], 1-(5-chloropyridin-2-yl)-4,4,5,5,5-pentafluoro-3-hydroxypent-2-en-1-one] | 0.23 ± 0.07 | – | 0.51 ± 0.09 | – |
| COc1ccc(C(=O)C=C(O)C(F)(F)C(F)(F)F)cn1 [compound [20], 4,4,5,5,5-pentafluoro-3-hydroxy-1-(6-methoxy-3-pyridyl)pent-2-en-1-one] | 0.11 ± 0.01 | – | 0.26 ± 0.05 | – |
| O=C(C=C(O)C(F)(F)CO)c1cccnc1 [compound [21], 4,4-difluoro-3,5-dihydroxy-1-(3-pyridyl)pent-2-en-1-one] | 5.5 | – | – | – |
| CCCCC(F)(F)C(O)=CC(=O)c1cccnc1 [compound [22], 4,4-difluoro-3-hydroxy-1-(3-pyridyl)oct-2-en-1-one] | 0.36 ± 0.05 | 24 ± 6 | – | – |
